Numbered stars: 1 amine (or outer) side, 2 acyl side, 3 side chain; on linkers, the order of the positions; unused ones are H or OH. Square brackets hold non-standard residues; d marks the D form. Peptide text beside a SMILES is read from it. * marks the point of attachment. DOTA = O=C(O)CN1CCN(CC(=O)O)CCN(CC(=O)*)CCN(CC(=O)O)CC1; Ala(9-anthryl) = N[C@@H](Cc1c2ccccc2cc2ccccc12)C(=O)O; Gly(N-(3-F-4-Me-benzyl)) = Cc1ccc(CNCC(=O)*)cc1F; X11 = O=C(c1ccc(-c2ccccc2)c(OCCN[*:1])c1)[*:2]; Bpa = N[C@@H](Cc1ccc(C(=O)c2ccccc2)cc1)C(=O)O; X4 = O=C(c1ccc(-c2ccccc2OCCCN[*:1])cc1)[*:2]; Phe(4-CN) = N#Cc1ccc(C[C@H](N)C(=O)O)cc1; 4Pal = N[C@@H](Cc1ccncc1)C(=O)O; 4Amb = NCc1ccc(C(=O)O)cc1; Api = NC1(C(=O)O)CCNCC1; Ahx = NCCCCCC(=O)O; azaGly = NNC(=O)O; Sar = CNCC(=O)O
Molecular target: human kisspeptin receptor (Homo sapiens (Human), UniProt Q969F8)
Assay: Human KISS1R binding assay (membrane competition binding)
Conditions: 90 min at room temperature; competition with 0.2 nM [125I]-metastin (45-54); Flp-In T-Rex 293 kisspeptin membranes; metal complexes nonradioactive Ga, In, Lu; read-out: hKiSSR Binding Ki (90 min)
Experimental: Crude membrane fractions are prepared from Flp-In T-Rex 293 (Thermo Fisher) cell line expressing the human kisspeptin receptor. The cells are grown to 85-100% confluence on standard tissue culture dishes in Dulbecco's Modified Eagles Medium (DMEM) (Corning) supplemented with 10% FBS (Gemini), 1% penicillin-streptomycin-glutamine (Gibco), 500 μg/mL hygromycin, and 15 μg/mL blastacidin. 48 hrs prior to preparing membranes 10 μg/ml of tetracycline is added to the culture media to induce receptor expression. To prepare membranes, cells are scraped and collected in 1× Dulbecco's phosphate buffered saline (Corning) and then pelleted at 1000 RPMs. The cell pellet is reconstituted in membrane preparation buffer (20 mM HEPES, 6 mM MgCl2 and 1 mM EGTA, protease inhibitor tablets (Pierce), pH 7.4) and placed in a cell disruption vessel (Parr Instrument company) at 1000 PSI for 30 min on ice. The pressurized contents are then released and spun down at 1000 RPMs and the supernatant is collected and further centrifuged at 15,000 RPMs to pellet the membranes. The membrane pellet is resuspended in membrane preparation buffer, snap frozen and stored at −80° C. for later use.
The human kisspeptin membrane binding assay utilizes the following components: radiolabel [^125I]-metastin (45-54) (human) (Perkinhmer), crude Flp-In T-Rex 293 kisspeptin membranes, and competing small molecule and peptide ligands. The assay is initiated by combining in assay buffer (50 mM TrisHCl, 5 mM MgCl2, 2 mM EGTA, 10 mM CaCl2, 0.1% BSA, pH 7.4) a dose response of competing ligand (final concentrations are typically 0-10,000 nM), 5-10 μg of Flp-In T-Rex 293 kisspeptin membranes, and 0.2 n M [^125I]-metastin (45-54) in a 96-well assay plate and allowed to incubate 90 minutes at room temperature. Assay contents are then filtered through unifilter CF/C: microplates (PerkinElmer) pre-soaked with 0.5% BSA and washed with 9×400 μL of cold wash buffer (10 mM HEPES, 500 mM NaCl, 0.1% Tween-20, pH7.4). Assay plates are read using a Microbeta^2 (PerkinElmer) and Ki values for compounds are determined using a GraphPad Prism 9.3 non-linear regression analysis.

Sequence of human kisspeptin receptor (Q969F8 whole entry): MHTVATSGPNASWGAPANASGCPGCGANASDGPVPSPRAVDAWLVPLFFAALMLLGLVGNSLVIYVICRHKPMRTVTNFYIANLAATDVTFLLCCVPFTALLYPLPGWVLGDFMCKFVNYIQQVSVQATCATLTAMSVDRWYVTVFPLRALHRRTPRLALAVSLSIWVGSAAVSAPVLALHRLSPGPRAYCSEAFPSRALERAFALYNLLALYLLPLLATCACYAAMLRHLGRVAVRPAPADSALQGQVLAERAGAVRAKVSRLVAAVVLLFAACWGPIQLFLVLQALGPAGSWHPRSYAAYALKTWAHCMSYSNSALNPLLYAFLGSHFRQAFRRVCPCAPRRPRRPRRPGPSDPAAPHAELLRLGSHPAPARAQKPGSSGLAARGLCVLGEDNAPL

Compound | Ki
CNCC(=O)N1CCC(NC(=O)[C@H](CC(C)C)NC(=O)NNC(=O)[C@H](Cc2ccccc2)NC(=O)[C@@H](NC(=O)[C@H](CC(N)=O)NC(=O)[C@H](Cc2c3ccccc3cc3ccccc23)NC(=O)[C@@H](Cc2ccc(O)cc2)NC(=O)CN2CCN(CC(=O)O)CCN(CC(=O)O)CCN(CC(=O)O)CC2)[C@@H](C)O)(C(=O)N[C@@H](Cc2ccncc2)C(N)=O)CC1 [Compound 202] ({DOTA}-[dY][Ala(9-anthryl)]NTF[azaGly]L[Api](Sar)[4Pal]-NH2) | 10 to 100 nM
Cc1ccc(CNCC(=O)N2CCC(NC(=O)[C@H](CC(C)C)n3cc([C@H](Cc4ccccc4)NC(=O)[C@@H](N)CCCCNC(=O)CN4CCN(CC(=O)O)CCN(CC(=O)O)CCN(CC(=O)O)CC4)nn3)(C(=O)N[C@@H](Cc3c[nH]c4ccccc34)C(N)=O)CC2)cc1F [Compound 204] | > 100 nM
Cc1ccc(CNCC(=O)N2CCC(NC(=O)[C@H](CC(C)C)NC(=O)NNC(=O)c3ccc(-c4ccccc4OCCCNC(=O)CN4CCN(CC(=O)O)CCN(CC(=O)O)CCN(CC(=O)O)CC4)cc3)(C(=O)N[C@@H](Cc3c[nH]c4ccccc34)C(N)=O)CC2)cc1F [Compound 298] ({DOTA}-[X4][azaGly]L[Api](Gly(N-(3-F-4-Me-benzyl)))W-NH2) | < 10 nM
Cc1ccc(CNCC(=O)N2CCC(NC(=O)[C@H](CC(C)C)NC(=O)NNC(=O)[C@H](Cc3ccccc3)NC(=O)[C@@H](NC(=O)[C@H](CC(N)=O)NC(=O)[C@H](CCC(=O)O)NC(=O)c3ccc(CNC(=O)CN4CCN(CC(=O)O)CCN(CC(=O)O)CCN(CC(=O)O)CC4)cc3)[C@@H](C)O)(C(=O)N[C@@H](Cc3ccc(C#N)cc3)C(N)=O)CC2)cc1F [Compound 241] ({DOTA-4Amb}-ENTF[azaGly]L[Api](Gly(N-(3-F-4-Me-benzyl)))[Phe(4-CN)]-NH2) | < 10 nM

Other lines, results leading:

Ki | Compound
< 10 nM | Cc1ccc(CNCC(=O)N2CCC(NC(=O)[C@H](CC(C)C)NC(=O)CNC(=O)[C@H](Cc3ccccc3)NC(=O)CCCCCNC(=O)CN3CCN(CC(=O)O)CCN(CC(=O)O)CCN(CC(=O)O)CC3)(C(=O)N[C@@H](Cc3c[nH]c4ccccc34)C(N)=O)CC2)cc1F [Compound 10] ({DOTA-Ahx}-FGL[Api](Gly(N-(3-F-4-Me-benzyl)))W-NH2)
< 10 nM | CC(=O)N[C@H](Cc1ccc(O)cc1)C(=O)N[C@H](Cc1c[nH]c2ccccc12)C(=O)N[C@@H](CC(N)=O)C(=O)N[C@H](C(=O)N[C@@H](Cc1ccccc1)C(=O)NNC(=O)N[C@@H](CC(C)C)C(=O)NC1(C(=O)N[C@@H](Cc2c[nH]c3ccccc23)C(N)=O)CCN(C(=O)CNCc2ccc(C)c(F)c2)CC1)[C@@H](C)O [Compound 390] (Ac-[dY][dW]NTF[azaGly]L[Api](Gly(N-(3-F-4-Me-benzyl)))W-NH2)
< 10 nM | CNCC(=O)N1CCC(NC(=O)[C@H](CC(C)C)NC(=O)NNC(=O)[C@H](Cc2ccccc2)NC(=O)[C@@H](NC(=O)[C@H](CC(N)=O)NC(=O)[C@H](Cc2ccc(C(=O)c3ccccc3)cc2)NC(=O)[C@@H](Cc2ccc(O)cc2)NC(=O)CCCCCNC(=O)CN2CCN(CC(=O)O)CCN(CC(=O)O)CCN(CC(=O)O)CC2)[C@@H](C)O)(C(=O)N[C@H](Cc2c[nH]c3ccccc23)C(N)=O)CC1 [Compound 345] ({DOTA-Ahx}-[dY][Bpa]NTF[azaGly]L[Api](Sar)[dW]-NH2)
> 100 nM | Cc1ccc(CNCC(=O)N2CCC(NC(=O)c3cccc(CNC(=O)[C@H](Cc4ccccc4)NC(=O)CCCCCNC(=O)CN4CCN(CC(=O)O)CCN(CC(=O)O)CCN(CC(=O)O)CC4)n3)(C(=O)N[C@@H](Cc3c[nH]c4ccccc34)C(N)=O)CC2)cc1F [Compound 135]
< 10 nM | Cc1ccc(CNCC(=O)N2CCC(NC(=O)c3ccc(-c4ccccc4)c(OCCNC(=O)[C@H](Cc4ccccc4)NC(=O)[C@@H](NC(=O)[C@H](CC(N)=O)NC(=O)[C@@H](Cc4c[nH]c5ccccc45)NC(=O)[C@@H](Cc4ccc(O)cc4)NC(=O)CCCCCNC(=O)CN4CCN(CC(=O)O)CCN(CC(=O)O)CCN(CC(=O)O)CC4)[C@@H](C)O)c3)(C(=O)N[C@@H](Cc3c[nH]c4ccccc34)C(N)=O)CC2)cc1F [Compound 279] ({DOTA-Ahx}-[dY][dW]NTF[X11][Api](Gly(N-(3-F-4-Me-benzyl)))W-NH2)
